# Laboratory results: patent US20230165867A1 (CHENGDU BAIYU PHARMACEUTICAL CO., LTD., priority 2020, published 2023)
# Like-named read-outs stand apart in the source and are kept apart here.
# Experiments:
# [1] = Pharmacokinetic assay in ICR mice (i.v. and p.o.); format: in vivo; settings: mouse, plasma, male ICR mice; for half-life: read-out: T½ (converted); for bioavailability: po 10 mg/kg vs iv 1 mg/kg
# Method: ICR mice were purchased from Beijing Vital River Laboratory Animal Technology Co., Ltd.
# 3.2 Experimental procedure • (1) Healthy male ICR mice (18-22 g) were prepared, with 18 mice for each compound. The mice were divided into 2 groups (an i.v. group and a p.o. group), with 9 mice per group. 3 mice were picked for blood collection at each time point. • (2) After the animals were fasted overnight (with free access to water), the compound of the present invention dissolved (or suspended) in a solvent of 5% DMSO and 95% 30% HP-β-CD (v:v) was administered via the tail vein (i.v., 1 mg/kg) or intragastrically (p.o., 10 mg/kg), respectively. • (3) For the i.v. group, 0.1 mL blood was collected from the submandibular vein 5 min, 15 min, 0.5 h, 1 h, 2 h, 4 h, 8 h, 12 h, and 24 h after administration, respectively, anticoagulated with EDTA-K2, and centrifuged at 4° C. for 5 min to obtain plasma, which was stored at -20° C. until testing. (4) For the p.o. group, 0.1 mL blood was collected from the submandibular vein before administration and 15 min, 0.5 h, 1 h, 2 h, 4 h, 6 h, 8 h, 12 h, and 24 h after administration, and treated in the same manner as that for the intravenous group. • (5) The concentration of the compound of the present invention in plasma was measured by LC/MS/MS. • (6) Calculation and fitting were performed with Analyst 1.6 from AB Company, and the results are shown in Table 3.
# DNA-PK kinase = molecular target: T1, DNA-PK kinase (Homo sapiens, UniProt P78527); experiment: Inhibition assay of DNA-PK kinase (Promega kit, ADP-Glo chemiluminescence); format: biochemical; settings: 50 µM ATP, 37° C., 60 min; read-out: IC50 (nM), inhibitory activity on DNA-PK kinase
# T1 construct: purchased Promega V4107
# Method: The inhibitory activity of the compounds on DNA-PK kinase was measured by using a DNA-PK kinase assay kit (purchased from Promega, Cat.#: V4107, Lot: 0000366495). The results were quantified by chemiluminescence, and the detailed experimental protocol was as follows: • i. An ADP-fluorescence standard curve over a range of concentrations was plotted according to the kit instructions; • ii. […] The mixtures were mixed well, centrifuged (1000 rpm, 30 s), and incubated at 37° C. for 60 min; • iv. 5 µL of ADP-Glo™ Reagent was added to stop the reaction, which was then mixed well, centrifuged (1000 rpm, 30 s), and incubated at room temperature for 40 min; • v. 10 µL Kinase Detection Reagent was added, and the mixture was mixed well by shaking, centrifuged (1000 rpm, 30 s), and incubated at room temperature for 30 min; • vi. The […] was measured by using a microplate reader (Thermo fisher, Varioskan LUX).
IC50 (DNA-PK kinase) [nM],Compound,also measured
8.3,"Cc1cc(Cl)ccc1Nc1ncc2c(n1)n(C1CCOCC1)c(=O)n2C [Compound 4, 2-((4-chloro-2-methylphenyl)amino)-7-methyl-9-(tetrahydro-2H-pyran-4-yl)-7,9-dihydro-8H-purin-8-one]",
5.47,"Cc1cc(F)ccc1Nc1ncc2c(n1)n(C1CCOCC1)c(=O)n2C [Compound 7, 2-((4-fluoro-2-methylphenyl)amino)-7-methyl-9-(tetrahydro-2H-pyran-4-yl)-7,9-dihydro-8H-purin-8-one]",
5.28,"Cc1ccc(C#N)cc1Nc1ncc2c(n1)n(C1CCOCC1)c(=O)n2C [Compound 15, 4-Methyl-3-((7-methyl-8-oxo-9-(tetrahydro-2H-pyran-4-yl)-8,9-dihydro-7H-purin-2-yl)amino)benzonitrile]",
17.9,"CNC(=O)c1cc(C)c(Nc2ncc3c(n2)n(C2CCOCC2)c(=O)n3C)cc1F [Compound 36, 2-Fluoro-N,5-dimethyl-4-((7-methyl-8-oxo-9-(tetrahydro-2H-pyran-4-yl)-8,9-dihydro-7H-purin-2-yl)amino)benzamide]",
11.9,"[2H]C([2H])([2H])NC(=O)c1cc(C)c(Nc2ncc3c(n2)n(C2CCOCC2)c(=O)n3C)cc1F [Compound 37, 2-Fluoro-5-methyl-N-(methyl-d3)-4-((7-methyl-8-oxo-9-(tetrahydro-2H-pyran-4-yl)-8,9-dihydro-7H-purin-2-yl)amino)benzamide]",
9.8,"Cc1sc(C#N)cc1Nc1ncc2c(n1)n(C1CCOCC1)c(=O)n2C [Compound 43, 5-Methyl-4-((7-methyl-8-oxo-9-(tetrahydro-2H-pyran-4-yl)-8,9-dihydro-7H-purin-2-yl)amino)thiophene-2-carbonitrile]",
13.5,COC(=O)c1cc(C)c(Nc2ncc3c(n2)n(C2CCOCC2)c(=O)n3C)cc1C#N [Compound 45],
12.7,"Cc1cc(C(N)=O)c(O)cc1Nc1ncc2c(n1)n(C1CCOCC1)c(=O)n2C [Compound 50, 2-Hydroxy-5-methyl-4-((7-methyl-8-oxo-9-(tetrahydro-2H-pyran-4-yl)-8,9-dihydro-7H-purin-2-yl)amino)benzamide]",
29.7,"Cc1cc(C(N)=O)c(F)c(C)c1Nc1ncc2c(n1)n(C1CCOCC1)c(=O)n2C [Compound 60, 2-Fluoro-3,5-dimethyl-4-((7-methyl-8-oxo-9-(tetrahydro-2H-pyran-4-yl)-8,9-dihydro-7H-purin-2-yl)amino)benzamide]",
50.5,"Cc1cc(C(N)=O)c(F)cc1Nc1ncc2c(n1)n(C1CCOCC1)c(=O)n2C(C)C [Compound 63, 2-Fluoro-4-((7-isopropyl-8-oxo-9-(tetrahydro-2H-pyran-4-yl)-8,9-dihydro-7H-purin-2-yl)amino)-5-methylbenzamide]",
0.01,"Cc1cc(C(N)=O)c(F)cc1Nc1ncc2c(n1)n(C1CCCCC1)c(=O)n2C [Compound 68, 4-((9-cyclohexyl-7-methyl-8-oxo-8,9-dihydro-7H-purin-2-yl)amino)-2-fluoro-5-methylbenzamide]",
4.14,"CO[C@H]1CC[C@@H](n2c(=O)n(C)c3cnc(Nc4cc(F)c(C(N)=O)cc4C)nc32)CC1 [Compound 70, 2-Fluoro-4-((9-(cis-4-methoxycyclohexyl)-7-methyl-8-oxo-8,9-dihydro-7H-purin-2-yl)amino)-5-methylbenzamide]",

# Continued, molecule first:
Compound,IC50 (DNA-PK kinase) [nM],also measured
"[2H]C([2H])([2H])n1c(=O)n(C2CCOCC2)c2nc(Nc3ccc(C#N)cc3C)ncc21 (single isomer, unassigned) [Compound 6, 3-Methyl-4-((7-(methyl-d3)-8-oxo-9-(tetrahydro-2H-pyran-4-yl)-8,9-dihydro-7H-purin-2-yl)amino)benzonitrile]",,"AUC ([1]; iv, 1 mg/kg): 82.4 ng·h/mL; half-life ([1]; iv, 1 mg/kg): 17.9 min; bioavailability [1]: 179%; AUC ([1]; po, 10 mg/kg): 1480 ng·h/mL; Cmax ([1]; po, 10 mg/kg): 1220 ng/mL; half-life ([1]; po, 10 mg/kg): 57.8 min"
"Cc1cc(S(C)(=O)=O)ccc1Nc1ncc2c(n1)n(C1CCOCC1)c(=O)n2C [Compound 1, 7-Methyl-2-((2-methyl-4-(methylsulfonyl)phenyl)amino)-9-(tetrahydro-2H-pyran-4-yl)-7,9-dihydro-8H-purin-8-one]",10.1,
"Cc1cc(C(F)(F)F)ccc1Nc1ncc2c(n1)n(C1CCOCC1)c(=O)n2C [Compound 3, 7-Methyl-2-((2-methyl-4-(trifluoromethyl)phenyl)amino)-9-(tetrahydro-2H-pyran-4-yl)-7,9-dihydro-8H-purin-8-one]",18.6,
"Cc1cc(C#N)ncc1Nc1ncc2c(n1)n(C1CCOCC1)c(=O)n2C [Compound 17, 4-Methyl-5-((7-methyl-8-oxo-9-(tetrahydro-2H-pyran-4-yl)-8,9-dihydro-7H-purin-2-yl)amino)picolinonitrile]",28.7,
COc1ccc(Nc2ncc3c(n2)n(C2CCOCC2)c(=O)n3C)c(C)n1 [Compound 21],53,
COC(=O)c1cc(Nc2ncc3c(n2)n(C2CCOCC2)c(=O)n3C)c(C)s1 [Compound 22],1.36,
"Cc1cc(C(=O)NC(C)C)ccc1Nc1ncc2c(n1)n(C1CCOCC1)c(=O)n2C [Compound 30, N-Isopropyl-3-methyl-4-((7-methyl-8-oxo-9-(tetrahydro-2H-pyran-4-yl)-8,9-dihydro-7H-purin-2-yl)amino)benzamide]",66.6,
"Cc1cc(C(=O)NC2CC2)ccc1Nc1ncc2c(n1)n(C1CCOCC1)c(=O)n2C [Compound 31, N-Cyclopropyl-3-methyl-4-((7-methyl-8-oxo-9-(tetrahydro-2H-pyran-4-yl)-8,9-dihydro-7H-purin-2-yl)amino)benzamide]",31,
Cc1[nH]c(=O)ccc1Nc1ncc2c(n1)n(C1CCOCC1)c(=O)n2C [Compound 40],39.2,
Cc1sc(C(=O)O)cc1Nc1ncc2c(n1)n(C1CCOCC1)c(=O)n2C [Compound 41],,"AUC ([1]; iv, 1 mg/kg): 357 ng·h/mL; half-life ([1]; iv, 1 mg/kg): 33 min; bioavailability [1]: 42.3%; AUC ([1]; po, 10 mg/kg): 1500 ng·h/mL; Cmax ([1]; po, 10 mg/kg): 2710 ng/mL; half-life ([1]; po, 10 mg/kg): 293 min"
"Cc1cc(C(=O)O)c(C#N)cc1Nc1ncc2c(n1)n(C1CCOCC1)c(=O)n2C [Compound 46, 2-cyano-5-methyl-4-((7-methyl-8-oxo-9-(tetrahydro-2H-pyran-4-yl)-8,9-dihydro-7H-purin-2-yl)amino)benzoic acid]",0.99,
"Cc1cc(C(N)=O)c(C#N)cc1Nc1ncc2c(n1)n(C1CCOCC1)c(=O)n2C [Compound 47, 2-cyano-5-methyl-4-((7-methyl-8-oxo-9-(tetrahydro-2H-pyran-4-yl)-8,9-dihydro-7H-purin-2-yl)amino)benzamide]",3.69,
COC(=O)c1cc(C)c(Nc2ncc3c(n2)n(C2CCOCC2)c(=O)n3C)cc1F [Compound 51],34.1,
"Cc1cc(=O)[nH]cc1Nc1ncc2c(n1)n(C1CCOCC1)c(=O)n2C [Compound 55, 7-Methyl-2-((4-methyl-6-oxo-1,6-dihydropyridin-3-yl)amino)-9-(tetrahydro-2H-pyran-4-yl)-7,9-dihydro-8H-purin-8-one]",14.8,
"Cc1cc(=O)n(C)cc1Nc1ncc2c(n1)n(C1CCOCC1)c(=O)n2C [Compound 56, 2-((1,4-Dimethyl-6-oxo-1,6-dihydropyridin-3-yl)amino)-7-methyl-9-(tetrahydro-2H-pyran-4-yl)-7,9-dihydro-8H-purin-8-one]",14.3,
"Cn1c(=O)n(C2CCOCC2)c2nc(Nc3cc(F)c(C(N)=O)cc3Cl)ncc21 [Compound 59, 5-Chloro-2-fluoro-4-((7-methyl-8-oxo-9-(tetrahydro-2H-pyran-4-yl)-8,9-dihydro-7H-purin-2-yl)amino)benzamide]",12.1,
"Cc1cc(C(N)=O)c(F)cc1Nc1ncc2c(n1)n(C1CCOCC1)c(=O)n2C1CC1 [Compound 64, 4-((7-cyclopropyl-8-oxo-9-(tetrahydro-2H-pyran-4-yl)-8,9-dihydro-7H-purin-2-yl)amino)-2-fluoro-5-methylbenzamide]",3.34,
"Cc1cc(C(N)=O)c(F)cc1Nc1ncc2c(n1)n(C1CCC(O)C1)c(=O)n2C (stereo not shown) [Compound 67, 2-Fluoro-4-((9-(3-hydroxycyclopentyl)-7-methyl-8-oxo-8,9-dihydro-7H-purin-2-yl)amino)-5-methylbenzamide]",2.96,
